Laboratory results reported in US20230286960A1, “ALLOSTERIC CHROMENONE INHIBITORS OF PHOSPHOINOSITIDE 3-KINASE (PI3K) FOR THE TREATMENT OF DISEASE” (Petra Pharma Corporation, priority 2020, published 2023).
pIC50: −log10 of the molar value.

Assays:
Mouse PK Assays = type: in vivo; parameters: PK-Mouse: PO AUC-last/dose: unit not given here; conditions: fed
[1] = target: human full length PIK3CA wild-type (p110α/p85α) (Homo sapiens (Human), UniProt P42336); assay: PI3K-alpha kinase (PIK3CA) activity, wild-type, Transcreener ADP2 FI assay; conditions: PI3K-α (PIK3CA) biochemical
Description: (§1) PI3K-Alpha Kinase (PIK3CA) Activity, Wild-Type and H1047R Mutant and Determining IC50 Values for Inhibitors
(§2) Recombinant, catalytically active human full length PIK3KA Wild-type and H1047R mutant were purchased as 1:1 complex of N-terminal 6× his tagged p110 ? (catalytic) and untagged p85 ? (regulatory subunit) from EMD Millipore Sigma (cat. no. 14-602M and 14-792M, respectively). The enzyme stocks were diluted to 5× stocks in buffer (20 mM HEPES pH 7.4, 100 mM NaCl, 0.5 mM EGTA, 0.01% triton-x-100) just before use. PIP2diC8 (Avanti Polar Lipids Inc., cat. no. 850185) or phosphoinositol-4,5-bisphosphate with phosphoserine (PIP2:PS) membrane (Thermo Fisher Scientific, cat. no. PV5100) was used as lipid substrates. PIP2diC8 lyophilized powder and PIP2:PS (1:19) membrane stock (1 mM in PIP2) were separately dissolved in milliQ water to a concentration of 250 uM and stored in −20° C. 10 mM stocks of compounds were serially diluted (3×) in neat DMSO and stored in a dessicator at room temperature. 5× compound stocks in 25% DMSO were prepared fresh from neat DMSO stocks.
(§3) Wild-type (WT) and H1047R mutant protein, along with buffer components (except ATP), were incubated with or without compound at 27° C. for 1 h. After incubation, the reaction was initiated by the addition of 5 uL of 125 uM ATP. A typical assay mixture (25 uL) comprised 40 mM HEPES buffer, pH 7.4, 25 mM MgCl2, 0.01% v/v triton-X-100, 5% v/v DMSO, 20 mM NaCl, 1-5 nM wt or H1047R, 25 uM ATP, and 50 uM PIP2diC8 or PIP2 in membrane. The reaction was allowed to proceed until about […] (2.5 uM ADP) after which time, 10 uL of reaction mixture was quenched with 25 uL of transcreener reagent (Transcreener ADP2 FI assay kit, BellBrook labs, Cat. No. 3013). The contents were incubated at rt for 1 h and fluorescence was measured using a plate reader (Paradigm, Molecular Devices). The same assay was also run at pH 6.0 or 6.4 using MOPS buffer (Fisher BioReagents, CAS 1132-61-2). A calibration curve was generated under identical buffer conditions with varying ADP amounts. Using that, the observed fluorescence was converted to uM ADP. A plot between [ADP] and log[I] yielded the dose-response curves that enabled the calculation of IC50s.

[2] = target: human full length PIK3CA H1047R mutant (p110α/p85α) (Homo sapiens (Human), UniProt P42336, H1047R); assay: PI3K-alpha kinase (PIK3CA) activity, H1047R mutant, Transcreener ADP2 FI assay; conditions: PI3K-α (PIK3CA) biochemical
Description: as §1, §2, §3

[3] = PO 10 mg/kg, 30% SBE-beta-cyclodextrin
[4] = PO 50 mg/kg, 20% DMSO/60% PEG400/20% Water
[5] = PO 100 mg/kg, 20% DMSO/60% PEG400/20% H2O
[6] = PO 10 mg/kg, 20% DMSO/60% PEG400/20% Water

human full length PIK3CA H1047R mutant (p110α/p85α), sequence (P42336 whole entry H1047R): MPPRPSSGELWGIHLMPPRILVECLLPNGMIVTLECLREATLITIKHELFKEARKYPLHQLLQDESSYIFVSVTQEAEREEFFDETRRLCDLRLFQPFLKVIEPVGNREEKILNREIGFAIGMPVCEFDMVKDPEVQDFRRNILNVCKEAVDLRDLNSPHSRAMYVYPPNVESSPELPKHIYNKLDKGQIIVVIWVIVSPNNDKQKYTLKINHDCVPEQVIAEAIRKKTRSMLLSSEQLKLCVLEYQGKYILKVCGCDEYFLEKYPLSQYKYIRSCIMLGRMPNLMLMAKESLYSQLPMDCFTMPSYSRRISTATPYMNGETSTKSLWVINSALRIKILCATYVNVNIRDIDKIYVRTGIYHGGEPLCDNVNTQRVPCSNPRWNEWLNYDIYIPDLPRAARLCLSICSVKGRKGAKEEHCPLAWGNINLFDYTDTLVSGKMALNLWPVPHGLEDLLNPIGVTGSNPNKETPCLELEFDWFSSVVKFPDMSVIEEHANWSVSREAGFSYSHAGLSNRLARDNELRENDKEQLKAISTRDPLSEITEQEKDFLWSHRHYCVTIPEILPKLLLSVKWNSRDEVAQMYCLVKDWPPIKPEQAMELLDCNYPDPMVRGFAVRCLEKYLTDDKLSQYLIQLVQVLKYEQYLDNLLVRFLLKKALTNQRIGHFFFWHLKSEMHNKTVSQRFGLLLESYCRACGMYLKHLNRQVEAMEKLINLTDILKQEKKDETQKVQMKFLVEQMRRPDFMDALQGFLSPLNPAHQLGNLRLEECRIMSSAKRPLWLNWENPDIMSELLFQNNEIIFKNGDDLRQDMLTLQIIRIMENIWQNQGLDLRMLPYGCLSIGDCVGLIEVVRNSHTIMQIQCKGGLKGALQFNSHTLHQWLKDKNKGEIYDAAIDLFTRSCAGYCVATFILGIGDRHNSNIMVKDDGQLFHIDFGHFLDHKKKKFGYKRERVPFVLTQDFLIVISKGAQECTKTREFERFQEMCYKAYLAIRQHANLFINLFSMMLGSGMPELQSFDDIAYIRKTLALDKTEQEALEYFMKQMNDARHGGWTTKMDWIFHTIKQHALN
human full length PIK3CA H1047R mutant (p110α/p85α), sequence (P27986 whole entry partner): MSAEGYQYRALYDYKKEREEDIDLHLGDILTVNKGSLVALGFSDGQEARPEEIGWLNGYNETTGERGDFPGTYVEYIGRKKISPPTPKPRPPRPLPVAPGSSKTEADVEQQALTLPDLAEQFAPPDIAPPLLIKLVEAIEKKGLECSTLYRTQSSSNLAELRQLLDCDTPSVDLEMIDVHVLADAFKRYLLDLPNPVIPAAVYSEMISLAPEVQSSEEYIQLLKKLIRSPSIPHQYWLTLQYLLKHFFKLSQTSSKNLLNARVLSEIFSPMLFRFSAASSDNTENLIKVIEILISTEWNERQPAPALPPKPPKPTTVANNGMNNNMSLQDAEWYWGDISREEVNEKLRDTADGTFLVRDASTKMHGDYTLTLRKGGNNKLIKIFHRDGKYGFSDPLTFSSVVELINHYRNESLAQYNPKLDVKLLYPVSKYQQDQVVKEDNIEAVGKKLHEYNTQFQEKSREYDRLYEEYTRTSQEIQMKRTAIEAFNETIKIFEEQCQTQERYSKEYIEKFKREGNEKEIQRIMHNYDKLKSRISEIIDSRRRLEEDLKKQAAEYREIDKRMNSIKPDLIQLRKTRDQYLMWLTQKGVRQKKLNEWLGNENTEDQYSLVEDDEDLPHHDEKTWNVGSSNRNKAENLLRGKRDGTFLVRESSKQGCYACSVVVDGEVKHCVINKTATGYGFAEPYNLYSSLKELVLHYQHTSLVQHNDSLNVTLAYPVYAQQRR
human full length PIK3CA wild-type (p110α/p85α), sequence (P42336 whole entry): as the sequence (P42336 whole entry H1047R) above, with R1047H counted along it
human full length PIK3CA wild-type (p110α/p85α), sequence (P27986 whole entry partner): as the sequence (P27986 whole entry partner) above

pIC50 [1] | pIC50 [2] | other results | SMILES
– | – | PK-Mouse: F % Calcd (Mouse PK Assays; [3]): 110%; PK-Mouse: PO AUC-last/dose (Mouse PK Assays; [3]): 390; PK-Mouse: F % Calcd (Mouse PK Assays; [4]): 280%; PK-Mouse: PO AUC-last/dose (Mouse PK Assays; [4]): 960; PK-Mouse: F % Calcd (Mouse PK Assays; [5]): 220%; PK-Mouse: PO AUC-last/dose (Mouse PK Assays; [5]): 760 | Cc1cc(C(C)Nc2ccccc2C(=O)O)c2oc(N3CCC(C)(C)CC3)cc(=O)c2c1 (single isomer, unassigned) [Example 366, 2-[1-[2-(4,4-Dimethyl-1-piperidyl)-6-methyl-4-oxo-chromen-8-yl]ethylamino]benzoic acid]
– | – | PK-Mouse: F % Calcd (Mouse PK Assays; [6]): 86%; PK-Mouse: PO AUC-last/dose (Mouse PK Assays; [6]): 1800; PK-Mouse: F % Calcd (Mouse PK Assays; [4]): 33%; PK-Mouse: PO AUC-last/dose (Mouse PK Assays; [4]): 700 | Cc1cc(C(C)Nc2ccccc2C(=O)O)c2oc(N3Cc4ccccc4C3)cc(=O)c2c1 (single isomer, unassigned) [Example 363, 2-[1-(2-Isoindolin-2-yl-6-methyl-4-oxo-chromen-8-yl)ethylamino]benzoic acid]
> 6.30 | > 6.30 | – | Cc1cc([C@@H](C)Nc2ccccc2C(=O)O)c2oc(N3CC(C)(c4ccccc4)C3)c(C)c(=O)c2c1 [Example 274, 2-[[(1R)-1-[3,6-Dimethyl-2-(3-methyl-3-phenyl-azetidin-1-yl)-4-oxo-chromen-8-yl]ethyl]amino]benzoic acid]
< 5.00 | < 5.00 | – | Cc1cc(C(C)Nc2cc3c(cc2C(=O)O)OCO3)c2oc(N3CCC(C)(C)CC3)cc(=O)c2c1 (centres unmarked) [Example 33, 6-[1-[2-(4,4-Dimethyl-1-piperidyl)-6-methyl-4-oxo-chromen-8-yl]ethylamino]-1,3-benzodioxole-5-carboxylic acid]
> 6.30 | > 6.30 | – | Cc1cc([C@@H](C)Nc2ccc(Cl)nc2C(=O)O)c2oc(N3Cc4ccc5c(c4C3)OCO5)cc(=O)c2c1 [Example 301, 6-Chloro-3-[[(1R)-1-[2-(6,8-dihydro-[1,3]dioxolo[4,5-e]isoindol-7-yl)-6-methyl-4-oxo-chromen-8-yl]ethyl]amino]pyridine-2-carboxylic acid]
< 5.00 | < 5.00 | – | Cc1cc(C(C)Nc2ccc(B(O)O)cc2C(=O)O)c2oc(N3CCC(C)(C)CC3)cc(=O)c2c1 (centres unmarked) [Example 357, 5-Borono-2-[1-[2-(4,4-dimethyl-1-piperidyl)-6-methyl-4-oxo-chromen-8-yl]ethylamino]benzoic acid]
< 5.00 | > 6.30 | – | Cc1cc(C(C)Nc2ccccc2C(=O)O)c2oc(N3CCC(C)CC3)cc(=O)c2c1 (centres unmarked) [Example 370, 2-[1-[6-Methyl-2-(4-methyl-1-piperidyl)-4-oxo-chromen-8-yl]ethylamino]benzoic acid]
